Results: patent US20080318993A1 (Endo Pharmaceuticals, Inc., priority 2007, published 2008)

How the values were obtained:
[1] = Example 5: urinary excretion of oxymorphone and metabolites in hepatic impairment vs healthy controls; conditions: for mean amount excreted in the urine: percent of administered dose, through 120 hours; for conversion of oxymorphone to the metabolite reduced by: from urine ratios
Description: (§1) While in the clinic, the subjects were to refrain from strenuous physical activity.

[2] = Example 5: plasma pharmacokinetics of EN3202 20 mg in hepatic impairment vs healthy controls; parameters: AUC point estimate, mild hepatic impairment vs healthy controls / Cmax point estimate, mild hepatic impairment vs healthy controls: unit not given beside the values; conditions: for AUCT / Cmax / T½ / λz / AUC: mean (SD); for Tmax: median (range); for AUC: plasma, single 20 mg EN3202, fasting; for mean (±SD) ratio of plasma metabolite AUC to oxymorphone AUC: AUC converted to molar concentrations; for increase in average AUC relative to controls: arithmetic means; for conversion of oxymorphone to the metabolite reduced by: from mean plasma metabolite ratios
Experimental: as §1
All study medications were supplied by the sponsor. […] A single 20 mg dose EN3202 was administered following an overnight fast (from approximately 22:00 on the evening prior to dose administration) at approximately 08:00, and participants were not allowed to eat until at least four hours after the dose.
All doses were administered with 240 mL of ambient water. Participants were instructed to drink all of the water.
Pharmacokinetic parameters were calculated using model-independent methods.
All pharmacokinetic results are summarized using appropriate descriptive statistics. […] One-way ANOVA was conducted using the model PKVAR=group, where group was mild hepatic impairment, moderate-severe hepatic impairment, or healthy control. Point estimates of the impaired versus control group differences and the corresponding 90% confidence limits were constructed.

[3] = 10 mg oral oxymorphone, cited from earlier work
[4] = moderate-severe hepatic impairment

| SMILES | mean amount excreted in the urine ([1]; control group) [%] | mean amount excreted in the urine ([1]; mild hepatic impairment) [%] | mean amount excreted in the urine [1, 4] [%] | AUCT ([2]; Healthy Controls) | Cmax ([2]; Healthy Controls) | T½ ([2]; Healthy Controls) | λz ([2]; Healthy Controls) | Tmax ([2]; Healthy Controls) | AUC ([2]; Healthy Controls) | AUCT ([2]; Mild Impairment) | Cmax ([2]; Mild Impairment) | T½ ([2]; Mild Impairment) | λz ([2]; Mild Impairment) | Tmax ([2]; Mild Impairment) | AUC ([2]; Mild Impairment) | AUCT ([2]; Moderate-Severe Impairment) | Cmax ([2]; Moderate-Severe Impairment) | T½ ([2]; Moderate-Severe Impairment) | λz ([2]; Moderate-Severe Impairment) | Tmax ([2]; Moderate-Severe Impairment) | further results |
| --- | --- | --- | --- | --- | --- | --- | --- | --- | --- | --- | --- | --- | --- | --- | --- | --- | --- | --- | --- | --- | --- |
| CN1CC[C@]23c4c5ccc(O)c4O[C@H]2C(O)CC[C@@]3(O)[C@H]1C5 (stereo partly drawn) [6-OH-oxymorphone, 6-hydroxy oxymorphone] | 0.25 | 0.71 | 0.88 | 10.80 (9.65) ng · hr/mL | 0.72 (0.32) ng/mL | 19.19 (11.75) hr | 0.0532 (0.0356) hr^−1 | 1.25 (1.0-4.0) hr | 14.76 (11.51) ng · hr/mL | 14.11 (9.73) ng · hr/mL | 1.12 (0.79) ng/mL | 17.54 (13.12) hr | 0.0545 (0.0269) hr^−1 | 1.25 (0.5-3.0) hr | 17.35 (11.17) ng · hr/mL | 29.25 (20.17) ng · hr/mL | 1.78 (1.00) ng/mL | 13.87 (8.02) hr | 0.0632 (0.0303) hr^−1 | 1.75 (1.0-6.0) hr | urinary excretion essentially complete by ([1]; after single 20 mg dose): ≤ 96 h; AUC ([2]; Moderate-Severe Impairment): 32.12 (19.80) ng · hr/mL; mean (±SD) ratio of plasma metabolite AUC to oxymorphone AUC ([2]; controls): 0.66 (0.30); increase in average AUC relative to controls ([2]; mild hepatic impairment): 1.18 fold; conversion of oxymorphone to the metabolite reduced by ([2]; mild hepatic impairment): approximately 17%; AUC increase relative to healthy controls ([2]; mild hepatic impairment, log-transformed comparison): 1.36 fold; mean (±SD) ratio of plasma metabolite AUC to oxymorphone AUC ([2]; mild impairment): 0.55 (0.10); Cmax increase relative to healthy controls ([2]; mild impairment, log-transformed comparison): 1.40 fold; conversion of oxymorphone to the metabolite reduced by [2, 4]: ~26%; mean (±SD) ratio of plasma metabolite AUC to oxymorphone AUC ([2]; moderate-severe impairment): 0.49 (0.37); increase in average AUC relative to controls ([2]; moderate-severe impairment): 2.18 fold; Urinary recovery, conjugated [3]: 2.6%; Urinary recovery, free [3]: ~0.3%; Urinary recovery, of the dose ([3]; free plus conjugated): approximately 3% |
| CN1CC[C@]23c4c5ccc(O[C@@H]6O[C@H](C(=O)O)[C@@H](O)[C@H](O)[C@H]6O)c4O[C@H]2C(=O)CC[C@@]3(O)[C@H]1C5 [Oxymorphone-3-glucuronide, oxymorphone-3-glucuronide] | 38.1 | 39.3 | 33.7 | 2886.8 (883.9) ng · hr/mL | 234.3 (41.7) ng/mL | 8.89 (3.00) hr | 0.0859 (0.0264) hr^−1 | 3.0 (1.5-4.0) hr | 2979.6 (896.1) ng · hr/mL | 2836.7 (1091.9) ng · hr/mL | 274.1 (95.8) ng/mL | 8.21 (3.87) hr | 0.0974 (0.0367) hr^−1 | 3.0 (3.0-4.0) hr | 2954.1 (1136.2) ng · hr/mL | 2629.3 (1457.8) ng · hr/mL | 212.0 (100.5) ng/mL | 7.40 (2.98) hr | 0.1075 (0.0435) hr^−1 | 3.5 (3.0-4.0) hr | mean ratio metabolite:oxymorphone excreted in the urine ([1]; healthy controls): 79.05; mean ratio metabolite:oxymorphone excreted in the urine ([1]; mild hepatic impairment): 39.43; conversion of oxymorphone to the metabolite reduced by ([1]; mild hepatic impairment): approximately 50%; mean ratio metabolite:oxymorphone excreted in the urine [1, 4]: 33.76; conversion of oxymorphone to the metabolite reduced by [1, 4]: ~57%; AUC ([2]; Moderate-Severe Impairment): 2713.9 (1498.6) ng · hr/mL; mean (±SD) ratio of plasma metabolite AUC to oxymorphone AUC ([2]; controls): 104.1 (39.5); circulating concentrations exceed those of the parent compound by ([2]; healthy control group): approximately 100 fold; AUC point estimate, mild hepatic impairment vs healthy controls ([2]; mild hepatic impairment): 0.972; Cmax point estimate, mild hepatic impairment vs healthy controls ([2]; mild hepatic impairment): 1.133; conversion of oxymorphone to the metabolite reduced by ([2]; mild hepatic impairment): approximately 35%; mean (±SD) ratio of plasma metabolite AUC to oxymorphone AUC ([2]; mild impairment): 67.2 (27.0); conversion of oxymorphone to the metabolite reduced by [2, 4]: ~56%; AUC as percent of control ([2]; moderate-severe impairment): approximately 80%; Cmax as percent of control ([2]; moderate-severe impairment): approximately 80%; circulating concentrations exceed those of the parent compound by ([2]; moderate-severe impairment): 45 fold; mean (±SD) ratio of plasma metabolite AUC to oxymorphone AUC ([2]; moderate-severe impairment): 45.52 (39.2); mean metabolite-to-parent ratio lower than in the control group ([2]; moderate-severe impairment, in both plasma and urine): 2,3 fold |
